Experimental data published in US8158628B2, “Sulfonylated 1,2,3,4-tetrahydropyrrolo[1,2-a]pyrazine compounds and their use as pharmaceuticals” (Gruenenthal GmbH, priority 2009, dated 2012).

Molecular target: T1, B1R of the rat (Rattus norvegicus, UniProt P97583)
T1 construct: expressed in transfected cells; host or cells: CHO K1 cells (Chinese hamster ovary), stably transfected
T1 sequence (P97583 1-337): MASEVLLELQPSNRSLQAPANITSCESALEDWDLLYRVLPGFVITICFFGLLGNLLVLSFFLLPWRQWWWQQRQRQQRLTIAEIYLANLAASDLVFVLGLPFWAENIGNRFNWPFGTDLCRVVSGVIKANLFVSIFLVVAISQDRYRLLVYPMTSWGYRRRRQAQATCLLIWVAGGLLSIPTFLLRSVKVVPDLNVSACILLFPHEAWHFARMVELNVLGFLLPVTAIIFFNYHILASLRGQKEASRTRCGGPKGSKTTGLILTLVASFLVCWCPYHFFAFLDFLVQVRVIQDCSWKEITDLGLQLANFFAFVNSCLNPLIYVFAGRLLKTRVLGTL
Assay: FLIPR Ca2+ functional assay, B1R antagonism, rat B1R in CHO K1 cells
Assay type: cell-based
Settings: test substance 10 μM; rB1R CHO K1 cells; agonist Des-Arg9 bradykinin at EC80; % of maximum achievable inhibition
Protocol: The agonistic or antagonistic action of substances on the bradykinin 1 receptor (B1R) of the human and rat species can be quantified with ectopically expressing cell lines (CHO K1 cells) and with the aid of a Ca^2+-sensitive dye (Fluo-4) using a fluorescent imaging plate reader (FLIPR). The value in % activation is based on the Ca^2+ signal after addition of Lys-Des-Arg^9 bradykinin (0.5 nM) or Des-Arg^9 bradykinin (100 nM). Antagonists lead to a suppression of the Ca^2+ influx following administration of the agonist. The % inhibition in comparison with the maximum achievable inhibition is indicated.
1. Functional Investigation on the Bradykinin 1 Receptor (B1R) The agonistic or antagonistic action of substances can be determined on the bradykinin 1 receptor (B1R) of the human and rat species with the following assay. According to this assay, the Ca^2+ inflow through the channel is quantified with the aid of a Ca^2+-sensitive dye (Fluo-4 type, Molecular Probes Europe BV, Leiden, Netherlands) in a fluorescent imaging plate reader (FLIPR, Molecular Devices, Sunnyvale, USA). 2. Method: Chinese hamster ovary cells (CHO K1 cells) which are stably transfected with the human B1R gene (hB1R cells) or the B1R gene of the rat (rB1R cells) are used. For functional investigations these cells are plated-out onto black 96-well plates with a clear base (BD Biosciences, Heidelberg, Germany or Greiner, Frickenhausen, Germany) in a density of 20,000-35,000 cells/well. Overnight the cells are incubated at 37° C. and 5% CO2 in culture medium (hB1R cells: Ham's Nutrient Mixture F12, Gibco Invitrogen GmbH, Karlsruhe, Germany or DMEM, Sigma-Aldrich, Taufkirchen, Germany; rB1R cells: D-MEM/F12, Gibco Invitrogen, Karlsruhe, Germany) with 10 vol. % FBS (foetal bovine serum, Gibco Invitrogen GmbH, Karlsruhe, Germany or PAN Biotech GmbH, Aidenbach, Germany).
On the following day the cells are loaded with 2.13 μM Fluo-4 (Molecular Probes Europe BV, Leiden, Netherlands) in HBSS buffer (Hank's buffered saline solution, Gibco Invitrogen GmbH, Karlsruhe, Germany) with 2.5 mM probenecid (Sigma-Aldrich, Taufkirchen, Germany) and 10 mM HEPES (Sigma-Aldrich, Taufkirchen, Germany) for 60 min at 37° C. The plates are subsequently washed twice with HBSS buffer, and HBSS buffer which additionally contains 0.1% BSA (bovine serum albumin; Sigma-Aldrich, Taufkirchen, Germany), 5.6 mM glucose and 0.05% gelatine (Merck KGaA, Darmstadt, Germany) is added. After a further incubation of 20 minutes at RT, the plates are inserted into the FLIPR for Ca^2+ measurement. Alternatively they are washed with buffer A (15 mM HEPES, 80 mM NaCl, 5 mM KCl, 1.2 mM CaCl2, 0.7 mM MgSO4, 2 g/l glucose, 2.5 mM probenecid) and loaded with buffer A with added 2.5 μM Fluo-4 and 0.025% Pluronic F127 (Sigma-Aldrich, Taufkirchen, Germany). The cells are then washed twice with buffer A and incubated for 30 minutes with buffer A, which additionally contains 0.05% BSA and 0.05% gelatine, at RT and then used for Ca^2+ measurement in the FLIPR. The Ca^2+-dependent fluorescence is measured here before and after addition of substances (λex=488 nm, λem=540 nm). The quantification is performed by measuring the highest fluorescence intensity (FC, fluorescence counts) over time.
The FLIPR protocol comprises two additions of substance. Test substances (10 μM) are first pipetted onto the cells and the Ca^2+ inflow is compared with the control (hB1R: Lys-Des-Arg^9 bradykinin >=50 nM; rB1R: Des-Arg^9 bradykinin 10 μM). The value in % activation based on the Ca^2+ signal after addition of Lys-Des-Arg^9 bradykinin (>=50 nM) or Des-Arg^9 bradykinin (10 μM) is obtained therefrom. After incubation for 10-20 minutes, Lys-Des-Arg^9 bradykinin (hB1R) or Des-Arg^9 bradykinin (rB1R) is applied in the EC80 concentration and the inflow of Ca^2+ is likewise determined.
Antagonists lead to a suppression of the Ca^2+ inflow. The % inhibition in comparison with the maximum achievable inhibition is calculated. […]

inhibition at 10 µM | SMILES
3.48% | Cc1cccc(Cl)c1S(=O)(=O)N1CCn2cccc2C1CC(=O)N1CCC(N2CCOCC2)CC1 (stereo not shown) [Example 159, 2-[2-[(2-Chloro-6-methyl-phenyl)sulfonyl]-1,2,3,4-tetrahydro-pyrrolo[1,2-a]pyrazin-1-yl]-1-(4-morpholin-4-yl-piperidin-1-yl)-ethanone]
9.45% | COc1ccc(N2CCN(C(=O)CC3c4cccn4CCN3S(=O)(=O)c3ccc(C(F)(F)F)cc3Cl)CC2)cc1 (stereo not shown) [Example 237, 2-[2-[[2-Chloro-4-(trifluoromethyl)-phenyl]sulfonyl]-1,2,3,4-tetrahydro-pyrrolo[1,2-a]pyrazin-1-yl]-1-[4-(4-methoxyphenyl)-piperazin-1-yl]-ethanone]
75.5% | COc1cc(C)c(S(=O)(=O)N2CCn3cccc3C2CC(=O)N2CCC(Cc3ccccc3)CC2)c(C)c1 (stereo not shown) [Example 257, 1-(4-Benzyl-piperidin-1-yl)-2-[2-[(4-methoxy-2,6-dimethyl-phenyl)sulfonyl]-1,2,3,4-tetrahydro-pyrrolo[1,2-a]pyrazin-1-yl]-ethanone]
56.1% | O=C(CC1c2cccn2CCN1S(=O)(=O)c1ccccc1)N1CCN(c2ccc(C(F)(F)F)cn2)CC1 (stereo not shown) [Example 183, 2-[2-(Benzenesulfonyl)-1,2,3,4-tetrahydro-pyrrolo[1,2-a]pyrazin-1-yl]-1-[4-[5-(trifluoromethyl)-pyridin-2-yl]-piperazin-1-yl]-ethanone]
4.54% | Cc1cccc(Cl)c1S(=O)(=O)N1CCn2cccc2C1CC(=O)N(C)C(CN1CCOCC1)c1ccccc1 (stereo not shown) [Example 259, 2-[2-[(2-Chloro-6-methyl-phenyl)sulfonyl]-1,2,3,4-tetrahydro-pyrrolo[1,2-a]pyrazin-1-yl]-N-methyl-N-(2-morpholin-4-yl-1-phenyl-ethyl)-acetamide]
8.4% | COc1ccc(CN2CCN(C(=O)CC3c4cccn4CCN3S(=O)(=O)c3c(C)cc(OC)cc3C)CC2)cc1 (stereo not shown) [Example 242, 2-[2-[(4-Methoxy-2,6-dimethyl-phenyl)sulfonyl]-1,2,3,4-tetrahydro-pyrrolo[1,2-a]pyrazin-1-yl]-1-[4-[(4-methoxyphenyl)-methyl]-piperazin-1-yl]-ethanone]
18.3% | CCN1CCN(C(=O)CC2c3cccn3CCN2S(=O)(=O)c2cccc(C(F)(F)F)c2)CC1 (stereo not shown) [Example 187, 1-(4-Ethyl-piperazin-1-yl)-2-[2-[[3-(trifluoromethyl)phenyl]sulfonyl]-1,2,3,4-tetrahydro-pyrrolo[1,2-a]pyrazin-1-yl]-ethanone]
9.74% | CCN1CCN(C(=O)CC2c3cccn3CCN2S(=O)(=O)c2ccccc2)CC1 (stereo not shown) [Example 173, 2-[2-(Benzenesulfonyl)-1,2,3,4-tetrahydro-pyrrolo[1,2-a]pyrazin-1-yl]-1-(4-ethyl-piperazin-1-yl)-ethanone]
-1.61% | Cc1ccc2[nH]c(C3CCN(C(=O)CC4c5cccn5CCN4S(=O)(=O)c4cccc(C(F)(F)F)c4)CC3)nc2c1 (stereo not shown) [Example 189, 1-[4-(5-Methyl-1H-benzoimidazol-2-yl)-piperidin-1-yl]-2-[2-[[3-(trifluoromethyl)phenyl]sulfonyl]-1,2,3,4-tetrahydro-pyrrolo[1,2-a]pyrazin-1-yl]-ethanone]
50.9% | COc1cc(C)c(S(=O)(=O)N2CCn3cccc3C2CC(=O)N2CCN(c3ccc(C(F)(F)F)cn3)CC2)c(C)c1 (stereo not shown) [Example 152, 2-[2-[(4-Methoxy-2,6-dimethyl-phenyl)sulfonyl]-1,2,3,4-tetrahydro-pyrrolo[1,2-a]pyrazin-1-yl]-1-[4-[5-(trifluoromethyl)-pyridin-2-yl]-piperazin-1-yl]-ethanone]
104% | COc1cc(C)c(S(=O)(=O)N2CCn3cccc3C2CC(=O)NCC2CCN(Cc3ccccc3)C2)c(C)c1 (stereo not shown) [Example 151, N-[(1-Benzyl-pyrrolidin-3-yl)-methyl]-2-[2-[(4-methoxy-2,6-dimethyl-phenyl)sulfonyl]-1,2,3,4-tetrahydro-pyrrolo[1,2-a]pyrazin-1-yl]-acetamide]
24.4% | O=C(CC1c2cccn2CCN1S(=O)(=O)c1cccc(C(F)(F)F)c1)N1CCN(c2ccccc2F)CC1 (stereo not shown) [Example 186, 1-[4-(2-Fluorophenyl)-piperazin-1-yl]-2-[2-[[3-(trifluoromethyl)phenyl]sulfonyl]-1,2,3,4-tetrahydro-pyrrolo[1,2-a]pyrazin-1-yl]-ethanone]
-7.98% | O=C(CC1c2cccn2CCN1S(=O)(=O)c1ccc(C(F)(F)F)cc1Cl)N1CCCCC1 (stereo not shown) [Example 19, 2-(2-(2-Chloro-4-(trifluoromethyl)phenylsulfonyl)-1,2,3,4-tetrahydropyrrolo[1,2-a]pyrazin-1-yl)-1-(piperidin-1-yl)ethanone]
30.7% | O=C(CC1c2cccn2CCN1S(=O)(=O)c1ccc(C(F)(F)F)cc1Cl)N1CCc2ccccc2C1 (stereo not shown) [Example 20, 2-(2-(2-Chloro-4-(trifluoromethyl)phenylsulfonyl)-1,2,3,4-tetrahydropyrrolo[1,2-a]pyrazin-1-yl)-1-(3,4-dihydroisoquinolin-2(1H)-yl)ethanone]
-37.6% | COc1cc(C)c(S(=O)(=O)N2CCn3cccc3C2CC(=O)N2CCCCC2Cc2ccccn2)c(C)c1 (stereo not shown) [Example 244, 2-[2-[(4-Methoxy-2,6-dimethyl-phenyl)sulfonyl]-1,2,3,4-tetrahydro-pyrrolo[1,2-a]pyrazin-1-yl]-1-[2-(pyridin-2-yl-methyl)-piperidin-1-yl]-ethanone]
44.1% | Cc1cccc(Cl)c1S(=O)(=O)N1CCn2cccc2C1CC(=O)N1CCCN(c2ncccc2C#N)CC1 (stereo not shown) [Example 164, 2-[4-[2-[2-[(2-Chloro-6-methyl-phenyl)sulfonyl]-1,2,3,4-tetrahydro-pyrrolo[1,2-a]pyrazin-1-yl]-acetyl]-[1,4]diazepan-1-yl]-pyridine-3-carbonitrile]
-4.75% | CN1CCN(C(=O)CC2c3cccn3CCN2S(=O)(=O)c2ccccc2)C(c2ccccc2)C1 (stereo not shown) [Example 267, 2-[2-(Benzenesulfonyl)-1,2,3,4-tetrahydro-pyrrolo[1,2-a]pyrazin-1-yl]-1-(4-methyl-2-phenyl-piperazin-1-yl)-ethanone]
7.57% | CC1CCCC(C)N1CCCNC(=O)CC1c2cccn2CCN1S(=O)(=O)c1ccccc1 (stereo not shown) [Example 169, 2-[2-(Benzenesulfonyl)-1,2,3,4-tetrahydro-pyrrolo[1,2-a]pyrazin-1-yl]-N-[3-(2,6-dimethyl-piperidin-1-yl)-propyl]-acetamide]
-21.5% | COc1cc(C)c(S(=O)(=O)N2CCn3cccc3C2CC(=O)N2CCCCC2Cc2ccncc2)c(C)c1 (stereo not shown) [Example 245, 2-[2-[(4-Methoxy-2,6-dimethyl-phenyl)sulfonyl]-1,2,3,4-tetrahydro-pyrrolo[1,2-a]pyrazin-1-yl]-1-[2-(pyridin-4-yl-methyl)-piperidin-1-yl]-ethanone]
